What was measured:
[1] = target: T1, 5-hydroxytryptamine receptor 1A (Homo sapiens, UniProt P08908); test: Ability to displace [3H]8-OH-DPAT from CHO cells stably transfected with human 5-hydroxytryptamine 1A receptor; format: cell-based
T1 sequence (P08908 whole entry): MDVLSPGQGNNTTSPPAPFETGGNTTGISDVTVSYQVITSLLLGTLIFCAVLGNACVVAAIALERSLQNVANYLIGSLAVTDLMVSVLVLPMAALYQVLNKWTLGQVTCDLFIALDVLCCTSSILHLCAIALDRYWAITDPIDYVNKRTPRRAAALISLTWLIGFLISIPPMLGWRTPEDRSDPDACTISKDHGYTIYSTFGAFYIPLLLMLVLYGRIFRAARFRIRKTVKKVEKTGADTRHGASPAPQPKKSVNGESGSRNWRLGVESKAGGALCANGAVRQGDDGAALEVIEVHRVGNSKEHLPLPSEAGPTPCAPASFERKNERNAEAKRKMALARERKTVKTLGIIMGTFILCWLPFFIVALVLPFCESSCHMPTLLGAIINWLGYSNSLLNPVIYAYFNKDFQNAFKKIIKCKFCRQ

[2] = target: Adrenergic receptor alpha-1 (Rattus norvegicus) (UniProt P15823+P23944+P43140); test: Compound was tested for percent inhibition at Alpha-1 adrenergic receptor in rat at 100 nM concentration
CHO [3] = test: Inhibitory activity determined by the compound ability to reverse the forskolin-stimulated turnover of cAMP in CHO cells; format: functional, cell-based; details: Cricetulus griseus
[4] = target: D(2) dopamine receptor (Rattus norvegicus) (UniProt P61169); test: Percent inhibition towards dopamine D2 receptor at 100 nM concentration
Sequence of D(2) dopamine receptor (Rattus norvegicus) (P61169 whole entry): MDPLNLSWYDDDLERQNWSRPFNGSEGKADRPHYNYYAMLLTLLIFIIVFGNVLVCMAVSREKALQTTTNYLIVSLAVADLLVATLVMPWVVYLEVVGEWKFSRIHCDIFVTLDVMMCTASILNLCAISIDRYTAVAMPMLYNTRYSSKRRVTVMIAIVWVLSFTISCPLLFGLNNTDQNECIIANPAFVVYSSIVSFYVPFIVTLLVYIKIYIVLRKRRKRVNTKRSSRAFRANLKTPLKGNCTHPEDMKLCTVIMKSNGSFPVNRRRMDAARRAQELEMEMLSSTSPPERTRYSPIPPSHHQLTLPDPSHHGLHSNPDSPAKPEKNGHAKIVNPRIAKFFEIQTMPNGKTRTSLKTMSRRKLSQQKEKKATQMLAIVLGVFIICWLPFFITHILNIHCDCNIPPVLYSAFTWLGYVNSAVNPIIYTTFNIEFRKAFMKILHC

CHO [5] = test: Intrinsic activity determined by the compound ability to reverse the forskolin-stimulated turnover of cAMP in CHO cells; format: functional; details: Cricetulus griseus
[6] = target: T2, 5-hydroxytryptamine receptor 1A (Homo sapiens) (UniProt P08908); test: Ability to displace [3H]-8-OH-DPAT from CHO cells stably transfected with human 5-hydroxytryptamine 1A receptor at a concentration of 1 uM; format: cell-based
T2 sequence (whole entry): T1 sequence (P08908 whole entry)

D(4) dopamine receptor = target: T3, D(4) dopamine receptor (Homo sapiens, UniProt P21917); test: Percent inhibition towards dopamine D4 receptor
T3 sequence (P21917 whole entry): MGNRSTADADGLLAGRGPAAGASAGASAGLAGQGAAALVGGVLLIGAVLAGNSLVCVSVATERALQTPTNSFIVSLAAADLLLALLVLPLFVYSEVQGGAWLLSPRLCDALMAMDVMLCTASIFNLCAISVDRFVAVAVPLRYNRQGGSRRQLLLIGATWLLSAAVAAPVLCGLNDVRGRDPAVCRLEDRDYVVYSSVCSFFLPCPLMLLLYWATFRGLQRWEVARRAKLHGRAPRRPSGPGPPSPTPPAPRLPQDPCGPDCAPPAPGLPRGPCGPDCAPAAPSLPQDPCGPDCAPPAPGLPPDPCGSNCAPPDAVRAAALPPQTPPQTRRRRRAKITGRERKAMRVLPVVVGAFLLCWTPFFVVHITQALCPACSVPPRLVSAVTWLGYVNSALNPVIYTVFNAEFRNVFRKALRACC

D(2) dopamine receptor = D(2) dopamine receptor (Rattus norvegicus, UniProt P61169); test: Percent inhibition towards dopamine D2 receptor
Sequence of D(2) dopamine receptor (P61169 whole entry): as the sequence (P61169 whole entry) above

D(3) dopamine receptor = D(3) dopamine receptor (Homo sapiens, UniProt P35462); test: Percent inhibition towards dopamine D3 receptor
Sequence of D(3) dopamine receptor (P35462 whole entry): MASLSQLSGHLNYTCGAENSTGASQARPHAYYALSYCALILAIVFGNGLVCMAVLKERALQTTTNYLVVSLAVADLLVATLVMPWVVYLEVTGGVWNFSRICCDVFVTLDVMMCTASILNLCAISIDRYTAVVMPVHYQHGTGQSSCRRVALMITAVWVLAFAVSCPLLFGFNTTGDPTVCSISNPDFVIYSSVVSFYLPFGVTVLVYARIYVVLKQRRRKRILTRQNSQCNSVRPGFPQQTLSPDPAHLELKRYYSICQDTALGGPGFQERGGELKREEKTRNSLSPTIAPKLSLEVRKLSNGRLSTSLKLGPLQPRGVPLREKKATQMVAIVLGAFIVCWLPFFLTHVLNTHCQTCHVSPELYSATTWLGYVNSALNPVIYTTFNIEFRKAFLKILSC

CHO [7] = test: Effective concentration for intrinsic activity determined by the compound ability to reverse the forskolin-stimulated turnover of cAMP in CHO cells; details: Cricetulus griseus

| SMILES | Ki [1] [nM] | inhibition [2] [%] | IC50 (CHO [3]) [nM] | Emax (CHO [5]) [%] | further results |
| --- | --- | --- | --- | --- | --- |
| CN(C(=O)C1CCCCC1)[C@H](Cc1ccccc1)CN1CCN(c2nsnc2Cl)CC1 |  | 0 | 49.3 |  |  |
| COc1nsnc1N1CCN(C[C@@H](Cc2ccccc2)N(C)C(=O)N2CCOCC2)CC1 |  |  |  |  | inhibition [6]: 46% |
| O=C(N[C@@H](Cc1ccccc1)CN1CCN(c2nsnc2Cl)CC1)c1ccccn1 |  |  |  |  | inhibition [6]: 47% |
| COc1nsnc1N1CCN(C[C@@H](Cc2cccnc2)NC(=O)C2(C)CCCCC2)CC1 | 3 |  | 113 | 0 | IC50 (D(4) dopamine receptor): 1100 nM; IC50 (D(2) dopamine receptor): 3520 nM; IC50 (D(3) dopamine receptor): 489 nM |
| O=C(N[C@@H](Cc1ccccc1)CN1CCN(c2nsnc2Cl)CC1)C1CCCCC1 | 0.8 | 17 |  | 93 | EC50 (CHO [7]): 4.6 nM |

More lines, main results first:

| Ki [1] [nM] | SMILES | inhibition [2] [%] | IC50 (CHO [3]) [nM] | Emax (CHO [5]) [%] | further results |
| --- | --- | --- | --- | --- | --- |
| 1.5 | COc1nsnc1N1CCN(C[C@@H](Cc2ccccc2)N(C)C(=O)C2CCCCC2)CC1 | 0 | 72.7 |  | inhibition [4]: 11% |
| 9.9 | COc1nsnc1N1CCN(C[C@@H](Cc2ccccc2)N(C)C(=O)c2ccccc2)CC1 | 15 | 6.4 | 0 |  |

— ChEMBL document CHEMBL1134028, “1,2,5-Thiadiazole derivatives are potent and selective ligands at human 5-HT1A receptors” (Bioorg Med Chem Lett, 2001)
